SMILES strings stand for the structures.

A word on the EC50: it is the concentration giving half of the maximal effect.

For this assay, the system named is genotype A, "Long" strain RSV. As to the kind of experiment: RSV-A in vitro cytoprotection assay in HEp-2 cells (ATPlite readout of cell viability). It counts as cell-based, Human respiratory syncytial virus. Conditions: human respiratory syncytial virus, HEp-2, HEp-2 cells, genotype A “Long” strain RSV, cytoprotection; read-out: Human RSV-A (“Long” strain) EC50. The text has this:
RSV is a single stranded negative sense RNA virus that causes respiratory tract infections which can be dangerous to infants, the elderly, and immunosuppressed individuals. Currently there is no vaccine, and therapeutic options are both costly and of limited effectiveness. These approved treatments are Ribavirin, and Palivizumab/Synagis (a monoclonal antibody). RSV has two genotypes, A and B, which differ primarily in the structure of the virus' surface “G” attachment protein. Our current primary screen focuses on RSV-A and uses an in vitro cytoprotection assay where compounds are added in 2-fold dilutions to cells which are then subjected to fully replicative viral particles. Cell viability is measured several days later along with separate measurements of compound cytotoxicity. This report focuses on the results of our most recent screening of compounds.
HEp-2 cells, (originally derived from tumors grown in irradiated-cortisonised weanling rats that had been injected with epidermoid carcinoma tissue from a person's larynx, but later found to be indistinguishable from HeLa cells by PCR DNA analysis), were used for the culturing of genotype A, “Long” strain RSV. Flasks were inoculated with RSV and viral stocks were collected once cytopathic effect (CPE) was greater than 90%. Viral stocks in 25% sucrose media were snap frozen using liquid nitrogen to increase viral stability. Viral stock titers were quantified by tissue culture infectious dose 50% (TCID50) using 8,000 cells per well and 3-fold viral dilutions across a 96-well plate, cultured for 4 days.
Following extensive parameter testing, the final assay is run as follows: HEp-2 cells are seeded into the inner 60 wells of a 96-well plate at 8,000 cells per well in a volume of 50 μL using Growth Media (DMEM without phenol red, 1% L-Glut, 1% Penn/Strep, 1% nonessential amino acids, 10% FBS). 2-Fold serial dilutions of control and test compounds are added to the wells in duplicate in a total volume of 25 μL. Viral stock is then added to the wells in a volume of 25 μL, bringing the total volume of each well to 100 μL. Each 96-well plate has a control column of 6 wells with cells and virus but no compound (negative control, max CPE), a column with cells but no compound or virus (positive control, minimum CPE), and a column with no cells or virus or compound (background plate/reagent control). The control wells with cells but no virus are given an additional 25 uL of growth media containing an equal quantity of sucrose as those wells receiving the viral stock in order to keep consistent in media and volume conditions. The outer wells of the plate are filled with 125 μL of growth media to act as a thermal and evaporative moat around the test wells. Following a 4-day incubation period, the plates are read using ATPlite (50 uL added per well), which quantifies the amount of ATP (a measure of cell health) present in each well. Assay plates are read using the Envision luminometer. In parallel, cytotoxicity is examined on an additional 96-well plate treated in an identical manner, but substituting the 25 μL of viral stock for 25 μL of growth media. […] EC50 ranges are as follows: A <0.4 μM; B 0.4-0.8 μM; C >0.8 μM.
Regarding `O=C(NC1CC1)c1cc2c(s1)-c1ccccc1N(C(=O)c1ccc(CN3CCOCC3)cc1)CC2` [Example 1], the EC50 is greater than 800 nM.
The figure for `O=C(NC1CC1)c1cc2c(s1)-c1ccccc1N(C(=O)c1cccc(CN3CCOCC3)c1)CC2` [Example 2] is greater than 800 nM; for `O=C(NC1CC1)c1cc2c(s1)-c1ccccc1N(C(=O)c1ccc(N3CCOCC3)cc1)CC2` [Example 3] it is greater than 800 nM; for `O=C(NC1CC1)c1cc2c(s1)-c1ccccc1N(C(=O)c1cccc(N3CCOCC3)c1)CC2` [Example 4] it is greater than 800 nM.
Regarding `COc1ccc(-c2cccc(C(=O)N3CCc4cc(C(=O)NC5CC5)sc4-c4ccccc43)c2)cc1` [Example 5], the EC50 is 400 to 800 nM.
Take `COc1ccc(-c2cccc(C(=O)N3CCc4cc(C(=O)NC5CC5)sc4-c4ccccc43)c2)cn1` [Example 6]: the EC50 is greater than 800 nM.
On to `N#Cc1ccc(-c2cccc(C(=O)N3CCc4cc(C(=O)NC5CC5)sc4-c4ccccc43)c2)cc1` [Example 7], for which the EC50 was in the range of 400 to 800 nM.
Regarding `O=C(NC1CC1)c1cc2c(s1)-c1ccccc1N(C(=O)c1ccc(CC(=O)N3CCOCC3)cc1)CC2` [Example 8], the EC50 was greater than 800 nM.
For `CS(=O)(=O)N1CCCc2cc(C(=O)N3CCc4cc(C(=O)NC5CC5)sc4-c4ccccc43)ccc21` [Example 9], the EC50 is greater than 800 nM.
`O=C(NC1CC1)c1cc2c(s1)-c1ccccc1N(C(=O)c1ccc3nc(N4CCOCC4)oc3c1)CC2` [Example 10]: the EC50 is greater than 800 nM.
On to `O=C(NC1CC1)c1cc2c(s1)-c1ccccc1N(C(=O)c1ccc3nc(CN4CCOCC4)oc3c1)CC2` [Example 11], for which the concentration for a half-maximal effect (EC50) is greater than 800 nM.
Regarding `O=C(NC1CC1)c1cc2c(s1)-c1ccccc1N(C(=O)c1csc(N3CCOCC3)n1)CC2` [Example 12], the EC50 is 400 to 800 nM.
With `O=C(NC1CC1)c1cc2c(s1)-c1ccccc1N(C(=O)c1ccc3ncn(C4CCOCC4)c3c1)CC2` [Example 13] the figure was greater than 800 nM; with `O=C(NC1CC1)c1cc2c(s1)-c1ccccc1N(C(=O)c1ccc3c(c1)ncn3C1CCOCC1)CC2` [Example 14], greater than 800 nM.
For the molecule `O=C(NC1CC1)c1cc2c(s1)-c1ccccc1N(C(=O)c1ccc(NC(=O)N3CCOCC3c3ccccc3)cc1)CC2` (stereo not drawn) [Example 15], the EC50 is greater than 800 nM.
With `O=C(NC1CC1)c1cc2c(s1)-c1ccccc1N(C(=O)c1cccc(N3CCOCC3)n1)CC2` [Example 16] the figure was 400 to 800 nM.
With `O=C(NC1CC1)c1cc2c(s1)-c1ccccc1N(C(=O)c1cccc(N3CCCOCC3)n1)CC2` [Example 17], the EC50 is less than 400 nM.
As for `O=C(NC1CC1)c1cc2c(s1)-c1ccccc1N(C(=O)c1cccc(N3CCC4(CC3)COC4)n1)CC2` [Example 18], the EC50 is 400 to 800 nM.
For `O=C(NC1CC1)c1cc2c(s1)-c1ccccc1N(C(=O)c1cccc(N3CC4(CCOCC4)C3)n1)CC2` [Example 19], the EC50 is greater than 800 nM.
With `CC(=O)N1CCN(c2cccc(C(=O)N3CCc4cc(C(=O)NC5CC5)sc4-c4ccccc43)n2)CC1` [Example 20] the figure was 400 to 800 nM; with `COC1CCN(c2cccc(C(=O)N3CCc4cc(C(=O)NC5CC5)sc4-c4ccccc43)n2)CC1` [Example 21], 400 to 800 nM; with `O=C1CN(c2cccc(C(=O)N3CCc4cc(C(=O)NC5CC5)sc4-c4ccccc43)n2)CCN1` [Example 22], 400 to 800 nM.
In the case of `O=C(NC1CC1)c1cc2c(s1)-c1ccccc1N(C(=O)c1cccc(N3CCC(F)(F)CC3)n1)CC2` [Example 23], the EC50 was less than 400 nM.
Turning to `CC1CN(c2cccc(C(=O)N3CCc4cc(C(=O)NC5CC5)sc4-c4ccccc43)n2)CC(C)O1` (stereo not drawn) [Example 24], the EC50 fell in the range of 400 to 800 nM.
As for `O=C(NC1CC1)c1cc2c(s1)-c1ccccc1N(C(=O)c1cccc(N3CCC4(CC3)CC4)n1)CC2` [Example 25], the EC50 is 400 to 800 nM.
As to `O=C(NC1CC1)c1cc2c(s1)-c1ccccc1N(C(=O)c1cccc(N3CCC4(CCOCC4)CC3)n1)CC2` [Example 26], the EC50 is 400 to 800 nM.
On to `O=C(NC1CC1)c1cc2c(s1)-c1ccccc1N(C(=O)c1cccc(N3CCN(C4COC4)CC3)n1)CC2` [Example 27], for which the EC50 was in the range of 400 to 800 nM.

The values are drawn from patent US10759816B2, “Heterocyclic compounds as RSV inhibitors” (Enanta Pharmaceuticals, Inc., priority 2016, dated 2020).
